Several values for one entry are separate records, joined by “and”; a condition that tells them apart may be missing. Equal values may be shown once.
Conditions: Fluid (supercritical or subcritical phases), Coaxial cylinder method

FCC(F)(F)F [1,1,1,2-tetrafluoroethane]
Conditions	thermal conductivity
377.87 K, 4339 kPa	0.0617 W/m/K
377.87 K, 4470 kPa	0.0614 W/m/K
377.87 K, 4479 kPa	0.0606 W/m/K
377.89 K, 4330 kPa	0.0583 W/m/K
377.89 K, 4518 kPa	0.0587 W/m/K
377.89 K, 4531 kPa	0.0582 W/m/K
377.9 K, 4541 kPa	0.0575 W/m/K
377.9 K, 4551 kPa	0.057 W/m/K
377.9 K, 4561 kPa	0.0566 W/m/K
377.9 K, 4582 kPa	0.0563 W/m/K
377.91 K, 4321 kPa	0.0557 W/m/K
377.93 K, 4309 kPa	0.0521 W/m/K
377.93 K, 4800 kPa	0.0547 W/m/K
377.93 K, 4851 kPa	0.0547 W/m/K
377.95 K, 4301 kPa	0.0503 W/m/K
377.96 K, 6000 kPa	0.0569 W/m/K
377.97 K, 4302 kPa	0.0487 W/m/K
378.02 K, 4500 kPa	0.0601 W/m/K
378.05 K, 7003 kPa	0.0589 W/m/K
378.07 K, 180 kPa	0.02003 W/m/K
378.07 K, 6502 kPa	0.058 W/m/K
378.11 K, 5504 kPa	0.056 W/m/K
378.16 K, 8004 kPa	0.0605 W/m/K
378.18 K, 7450 kPa	0.0597 W/m/K
378.24 K, 10507 kPa	0.064 W/m/K
378.25 K, 4395 kPa	0.0667 W/m/K
378.25 K, 4400 kPa	0.0667 W/m/K
378.25 K, 9919 kPa	0.0632 W/m/K
378.25 K, 21005 kPa	0.0736 W/m/K
378.26 K, 4380 kPa	0.0657 W/m/K
378.26 K, 4390 kPa	0.0664 W/m/K
378.26 K, 4410 kPa	0.0667 W/m/K
378.26 K, 4420 kPa	0.0661 W/m/K
378.26 K, 4430 kPa	0.0655 W/m/K
378.26 K, 9506 kPa	0.0627 W/m/K
378.27 K, 4370 kPa	0.0645 W/m/K
378.27 K, 4440 kPa	0.0645 W/m/K
378.27 K, 4450 kPa	0.0639 W/m/K
378.27 K, 4460 kPa	0.0633 W/m/K
378.27 K, 9008 kPa	0.062 W/m/K
378.27 K, 18500 kPa	0.0716 W/m/K
378.28 K, 4360 kPa	0.0622 W/m/K
378.28 K, 4470 kPa	0.0625 W/m/K
378.28 K, 4480 kPa	0.0616 W/m/K
378.29 K, 4350 kPa	0.0597 W/m/K
378.29 K, 4490 kPa	0.0611 W/m/K
378.29 K, 4500 kPa	0.0608 W/m/K
378.29 K, 4510 kPa	0.0603 W/m/K
378.29 K, 4520 kPa	0.0601 W/m/K
378.29 K, 4530 kPa	0.0598 W/m/K
378.29 K, 8408 kPa	0.0612 W/m/K
378.29 K, 16500 kPa	0.0701 W/m/K
378.3 K, 4540 kPa	0.0595 W/m/K
378.3 K, 4550 kPa	0.0593 W/m/K
378.3 K, 4570 kPa	0.0588 W/m/K
378.3 K, 4590 kPa	0.0585 W/m/K
378.31 K, 4340 kPa	0.057 W/m/K
378.31 K, 4620 kPa	0.0581 W/m/K
378.31 K, 4626 kPa	0.0578 W/m/K
378.31 K, 4650 kPa	0.0573 W/m/K
378.31 K, 4688 kPa	0.0571 W/m/K
378.31 K, 4730 kPa	0.0569 W/m/K
378.31 K, 14505 kPa	0.0683 W/m/K
378.32 K, 4770 kPa	0.0567 W/m/K
378.33 K, 4330 kPa	0.0547 W/m/K
378.33 K, 13441 kPa	0.0674 W/m/K
378.34 K, 12420 kPa	0.0663 W/m/K
378.35 K, 4320 kPa	0.0524 W/m/K
378.36 K, 4310 kPa	0.0506 W/m/K
378.36 K, 11376 kPa	0.065 W/m/K
378.37 K, 10981 kPa	0.0646 W/m/K
378.38 K, 4300 kPa	0.0488 W/m/K
378.4 K, 4290 kPa	0.0472 W/m/K
378.41 K, 4280 kPa	0.0461 W/m/K
378.43 K, 4260 kPa	0.0438 W/m/K
378.45 K, 4240 kPa	0.0422 W/m/K
378.47 K, 4220 kPa	0.0408 W/m/K
378.49 K, 4200 kPa	0.0395 W/m/K
378.5 K, 4180 kPa	0.0385 W/m/K
378.53 K, 4140 kPa	0.0368 W/m/K
378.53 K, 4150 kPa	0.0371 W/m/K
378.54 K, 4130 kPa	0.0364 W/m/K
378.59 K, 4860 kPa	0.0565 W/m/K
378.59 K, 4900 kPa	0.0565 W/m/K
378.63 K, 440 kPa	0.02017 W/m/K
378.74 K, 180 kPa	0.02012 W/m/K
378.81 K, 4120 kPa	0.036 W/m/K
378.83 K, 4090 kPa	0.0351 W/m/K
378.85 K, 4050 kPa	0.0339 W/m/K
378.9 K, 330 kPa	0.02026 W/m/K
378.9 K, 3950 kPa	0.0317 W/m/K
379.09 K, 4452 kPa	0.0625 W/m/K
379.09 K, 4460 kPa	0.0627 W/m/K
379.09 K, 4464 kPa	0.063 W/m/K
379.09 K, 4470 kPa	0.063 W/m/K
379.09 K, 4475 kPa	0.063 W/m/K
379.09 K, 4484 kPa	0.063 W/m/K
379.09 K, 4500 kPa	0.0627 W/m/K
379.1 K, 4331 kPa	0.0441 W/m/K
379.17 K, 300 kPa	0.02023 W/m/K
379.22 K, 4504 kPa	0.0628 W/m/K
379.23 K, 4452 kPa	0.0608 W/m/K
379.23 K, 4453 kPa	0.0614 W/m/K
379.23 K, 4520 kPa	0.062 W/m/K
379.23 K, 4530 kPa	0.0615 W/m/K
379.24 K, 4540 kPa	0.0609 W/m/K
379.24 K, 4547 kPa	0.0606 W/m/K
379.24 K, 4560 kPa	0.0601 W/m/K
379.24 K, 4570 kPa	0.0599 W/m/K
379.25 K, 4442 kPa	0.0593 W/m/K
379.25 K, 4600 kPa	0.0591 W/m/K
379.25 K, 4620 kPa	0.0587 W/m/K
379.25 K, 4642 kPa	0.0584 W/m/K
379.26 K, 4431 kPa	0.0573 W/m/K
379.26 K, 4662 kPa	0.0579 W/m/K
379.26 K, 4680 kPa	0.0577 W/m/K
379.26 K, 4703 kPa	0.0575 W/m/K
379.26 K, 4739 kPa	0.0573 W/m/K
379.26 K, 4766 kPa	0.0573 W/m/K
379.26 K, 4806 kPa	0.057 W/m/K
379.27 K, 4424 kPa	0.0559 W/m/K
379.28 K, 4414 kPa	0.0545 W/m/K
379.29 K, 4404 kPa	0.053 W/m/K
379.3 K, 4396 kPa	0.0516 W/m/K
379.32 K, 4386 kPa	0.0501 W/m/K
379.33 K, 4376 kPa	0.0487 W/m/K
379.34 K, 4369 kPa	0.0478 W/m/K
379.36 K, 4355 kPa	0.0462 W/m/K
379.37 K, 4346 kPa	0.0453 W/m/K
379.39 K, 4330 kPa	0.0437 W/m/K
379.4 K, 4309 kPa	0.0422 W/m/K
379.4 K, 4317 kPa	0.0427 W/m/K
379.4 K, 4838 kPa	0.0567 W/m/K
379.4 K, 4888 kPa	0.0562 W/m/K
379.41 K, 4932 kPa	0.0558 W/m/K
379.41 K, 5000 kPa	0.0554 W/m/K
379.41 K, 5051 kPa	0.055 W/m/K
379.42 K, 4288 kPa	0.0408 W/m/K
379.43 K, 150 kPa	0.02035 W/m/K
379.43 K, 154 kPa	0.0231 W/m/K
379.43 K, 4282 kPa	0.0405 W/m/K
379.45 K, 4254 kPa	0.0389 W/m/K
379.47 K, 4224 kPa	0.0376 W/m/K
379.48 K, 4200 kPa	0.0367 W/m/K
379.5 K, 4165 kPa	0.0355 W/m/K
379.5 K, 4175 kPa	0.0358 W/m/K
379.72 K, 160 kPa	0.01996 W/m/K
381.53 K, 4627 kPa	0.0551 W/m/K
381.53 K, 4640 kPa	0.0555 W/m/K
381.53 K, 4650 kPa	0.056 W/m/K
381.53 K, 4660 kPa	0.0562 W/m/K
381.53 K, 4670 kPa	0.0565 W/m/K
381.53 K, 4680 kPa	0.0565 W/m/K
381.54 K, 4700 kPa	0.0562 W/m/K
381.54 K, 4760 kPa	0.056 W/m/K
381.55 K, 4612 kPa	0.0542 W/m/K
381.55 K, 4780 kPa	0.0558 W/m/K
381.55 K, 4800 kPa	0.0555 W/m/K
381.55 K, 4815 kPa	0.0553 W/m/K
381.56 K, 4600 kPa	0.0536 W/m/K
381.56 K, 4830 kPa	0.0551 W/m/K
381.56 K, 4860 kPa	0.0549 W/m/K
381.56 K, 4900 kPa	0.0542 W/m/K
381.56 K, 4920 kPa	0.0542 W/m/K
381.56 K, 4950 kPa	0.0543 W/m/K
381.56 K, 4982 kPa	0.0543 W/m/K
381.56 K, 5016 kPa	0.0543 W/m/K
381.56 K, 5068 kPa	0.0543 W/m/K
381.57 K, 5092 kPa	0.0539 W/m/K
381.57 K, 5125 kPa	0.0538 W/m/K
381.57 K, 5136 kPa	0.0538 W/m/K
381.57 K, 5169 kPa	0.0536 W/m/K
381.57 K, 5201 kPa	0.0536 W/m/K
381.58 K, 4569 kPa	0.0518 W/m/K
381.6 K, 4530 kPa	0.0495 W/m/K
381.61 K, 4516 kPa	0.0483 W/m/K
381.61 K, 4520 kPa	0.0487 W/m/K
381.61 K, 4525 kPa	0.049 W/m/K
381.62 K, 4510 kPa	0.0478 W/m/K
381.63 K, 4490 kPa	0.0464 W/m/K
381.63 K, 4500 kPa	0.0472 W/m/K and 0.0468 W/m/K
385.18 K, 4940 kPa	0.0522 W/m/K
